Results taken from PMC7482436, “Optopharmacology reveals a differential contribution of native GABAA receptors to dendritic and somatic inhibition using azogabazine” (Neuropharmacology, 2020).
Where two headings read alike, the source gives them in different places.

Key:
[1] = system: cerebellar granule cells; test: Current clamp of action potential firing in cultured cerebellar granule cells with membrane-delimited UV spot; type: cell-based, Sprague Dawley rats; details: 1 μM azogabazine; for inhibition at 1 µM: Rattus norvegicus
Description: Dissociated cerebellar cultures were prepared from cerebellar tissue taken from postnatal day 4 (P4) Sprague Dawley rats. Tissue blocks were incubated in trypsin for 10 min (0.1% w/v), washed in Hanks Balanced Salt Solution (HBSS), and then triturated in DNase (0.05% w/v in 12 mM MgSO4). Cells were plated on poly-L-ornithine coated 22 mm glass coverslips in Basal Medium Eagle (BME) supplemented with 0.5% (w/v) glucose, 5 mg/l insulin, 5 mg/l transferrin, 5 mg/l selenium, 20 u/ml penicillin-G and 20 μg/ml streptomycin, 0.2 mM glutamine, 1.2 mM NaCl, and 5% (v/v) fetal calf serum. The neuronal culture was then allowed to develop for 7–10 days at 37 °C in humidified air with 5% CO2 before used for experiments.
To initiate photo-isomerization of azogabazine, optical light paths were used to convey UV laser (Obis [375 nm], Coherent Inc., Santa Clara, USA) or blue LED light (OptoLED [470 nm], Cairn Research Ltd, Faversham, U.K.) through a variable diaphragm (for setting the illuminated spot-diameter), and finally through a water-immersion objective (Nikon, NIR Apo 40×/0.8w) to the cells. The diaphragm was kept fully open for whole cell light exposure experiments and reduced to generate small spots (~8–12 μm) when exposing soma or proximal dendritic areas. The illuminated spot size and position could be adjusted during experiments. Whereas the blue LED could be operated at high power (8.1 mW) during experiments, the UV laser output was empirically adjusted to 2 mW (4% of maximum operating power) to avoid cell damage, but still sufficient to adequately azogabazine isomerization. To adjust the size and position of the illuminated spot, a 440 nm white LED pilot light and a 515 nm long-pass filter were used before switching to UV or blue light.
IPSCs from cerebellar granule cells were detected post-hoc using WinEDR 3.5.6, and analysed for frequency, amplitude, rise time and weighted decay tau using WinWCP 4.9.6. Action potentials from cerebellar granule cells were recorded under current-clamp and were similarly detected with WinEDR 3.5.6. Data were subjected to statistical analyses (ANOVA, paired and unpaired Student t-tests).
To assess neuronal excitability and GABA inhibition, current clamp recordings were performed from cultured granule cells to monitor action potential generation in the presence of 1 μM azogabazine before and after applying UV light.

[2] = 1H NMR of cis:trans isomer ratio and isomer stability under different light conditions; type: physicochemical
Description: For most of the study azogabazine was kept in darkness to ensure a stock of near-100% trans-isomer. Unless stated otherwise, experiments were performed in near-darkness (under red light) when making azogabazine stocks (1 mM stock solution in DMSO), and when pre-exposing stock solutions to UV or blue light using wavelength specific LEDs. Pre-exposure of azogabazine (stock) to UV or blue light was undertaken by positioning a UV (365 nm) or blue (470 nm) OptoLED (Cairn Research Ltd, Faversham, UK) 2–3 mm above a 500 μl droplet on parafilm and exposing for 2 min at maximum light intensity to ensure attainment of equilibrium between cis and trans isomers. The UV LED was operated at 1.2 A to achieve a light intensity output at the surface of the droplet of 5.3 mW. By comparison, the Blue LED was run at 0.9 A for a light intensity output of 8.1 mW at the surface of the droplet.
To physically assess the photo-conversion efficiency between the cis and trans isomers we determined the proton (^1H)-NMR spectra for azogabazine ([…]) in deuterated DMSO under different light conditions. Initially, azogabazine was retained in complete darkness for >14 days and then stored under similar dark conditions. This drove the cis:trans equilibrium almost completely towards the more thermodynamically stable trans isomer (Fig. 1C). […] By integrating the ^1H NMR spectra, long-term darkness produced ~100% of trans-azogabazine, whereas the UV (365 nm) exposure produced an equilibrium of ~85% cis to 15% trans isomers. […] Thus, switching the wavelength of light produced substantive photoisomerisation of azogabazine.
Fig. 2 Azogabazine isomerization and isomer stability. (A), Stability plot for the cis-isomer for non-dark adapted azogabazine samples exposed to different wavelengths of light: λ 365, 405, 470, 530, 565 nm, and near-infrared (NR), prior to ^1H NMR. […] A long (60 s) period of UV-exposure was needed to reach a maximal equilibrium conversion ratio of ~85 : 15% for cis: trans isomers. […] (B), The stability of a UV exposed and established cis: trans ratio is dependent on subsequent storage conditions. If the UV-exposed sample is subsequently kept in ambient light (blue line), the cis:trans ratio changes over ~ 2–4 h towards ~25% cis: 75% trans remaining stable over 10 days (dashed blue line). By contrast, the UV-exposed sample remained stable (~85% cis: 15% trans) over 24 h if subsequently kept in darkness (red line). However, over 10 days, conversion to a predominant trans-form was evident (dashed red line). Finally, when a sample which had been kept in ambient light (~25% cis: 75% trans) was then placed and stored in darkness, it remained stable over 24 h (green line) but slowly converted again to the trans form over 10 days (dashed green line).
To investigate the dynamic relationship between the two azogabazine isomers, we investigated the effect of azogabazine in solution under conditions that result in three different ratios of trans: cis isomers. These included: a dark-adapted solution (trans 100: cis 0%); one pre-exposed for 60 s to blue light (trans 75: cis 25%); and a third exposed for the same duration to UV light (trans 15: cis 85%). […] All subsequent experiments were performed in near-darkness and within 3 h after the trans: cis ratios were established to ensure the stability of the isomers during experimentation. […] The later provides assurance as to the relative time stability of the cis and trans isoforms of azogabazine.

[3] = molecular target: T1, α1β2γ2L GABAARs (Mus musculus, UniProt P62812+P63137); parameters: method as in Huckvale et al., 2016; details: normal ambient daylight; ref Huckvale et al., 2016; cited from earlier work
T1 construct: expressed in transfected cells; host or cells: HEK293

[4] = molecular target: T1, α1β2γ2L GABAARs; test: Whole-cell patch clamp of GABA currents, recombinant α1β2γ2L GABAARs in HEK293 cells; type: cell-based, murine; details: for IC50: 10 μM GABA
[5] = system: cerebellar granule cells; test: Voltage clamp of GABA-mediated IPSCs in cultured cerebellar granule cells with membrane-delimited UV spot; type: cell-based, Sprague Dawley rats; details: for mean IPSC amplitude recovered with UV light / IPSC frequency normalised to 100 μm^2 membrane area: 1 μM azogabazine; for mean IPSC amplitude recovered with UV light: −60 mV, n = 12
[6] = UV 365 nm exposure for 60 s, equilibrium
[7] = blue light 470 nm for 60 s, photostationary state

T1 sequence (P62812 28-455): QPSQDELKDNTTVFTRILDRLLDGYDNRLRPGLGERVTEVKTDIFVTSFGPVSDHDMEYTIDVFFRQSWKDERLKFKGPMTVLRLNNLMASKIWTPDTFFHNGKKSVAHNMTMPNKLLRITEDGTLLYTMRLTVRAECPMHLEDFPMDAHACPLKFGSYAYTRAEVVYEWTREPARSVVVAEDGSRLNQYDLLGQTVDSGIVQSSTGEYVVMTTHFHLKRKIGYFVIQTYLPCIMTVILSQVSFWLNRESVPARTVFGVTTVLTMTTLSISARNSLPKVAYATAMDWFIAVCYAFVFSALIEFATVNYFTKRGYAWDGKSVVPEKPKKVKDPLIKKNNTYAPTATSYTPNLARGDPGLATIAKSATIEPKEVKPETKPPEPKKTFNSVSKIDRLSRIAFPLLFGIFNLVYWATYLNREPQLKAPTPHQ
T1 sequence (P63137 25-512 limits assumed): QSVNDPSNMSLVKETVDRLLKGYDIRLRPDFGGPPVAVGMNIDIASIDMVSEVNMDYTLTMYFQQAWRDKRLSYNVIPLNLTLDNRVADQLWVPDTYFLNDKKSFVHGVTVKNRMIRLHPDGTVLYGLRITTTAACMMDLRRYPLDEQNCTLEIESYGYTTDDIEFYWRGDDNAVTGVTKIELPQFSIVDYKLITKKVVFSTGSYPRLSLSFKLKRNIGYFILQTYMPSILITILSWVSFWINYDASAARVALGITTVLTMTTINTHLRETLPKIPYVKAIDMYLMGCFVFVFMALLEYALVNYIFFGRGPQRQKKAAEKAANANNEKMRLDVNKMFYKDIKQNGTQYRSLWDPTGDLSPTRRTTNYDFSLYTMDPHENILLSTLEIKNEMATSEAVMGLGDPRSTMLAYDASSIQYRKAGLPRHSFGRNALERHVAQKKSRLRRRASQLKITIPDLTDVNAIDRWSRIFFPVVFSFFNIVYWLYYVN
T1 sequence (P22723 39-474 partner): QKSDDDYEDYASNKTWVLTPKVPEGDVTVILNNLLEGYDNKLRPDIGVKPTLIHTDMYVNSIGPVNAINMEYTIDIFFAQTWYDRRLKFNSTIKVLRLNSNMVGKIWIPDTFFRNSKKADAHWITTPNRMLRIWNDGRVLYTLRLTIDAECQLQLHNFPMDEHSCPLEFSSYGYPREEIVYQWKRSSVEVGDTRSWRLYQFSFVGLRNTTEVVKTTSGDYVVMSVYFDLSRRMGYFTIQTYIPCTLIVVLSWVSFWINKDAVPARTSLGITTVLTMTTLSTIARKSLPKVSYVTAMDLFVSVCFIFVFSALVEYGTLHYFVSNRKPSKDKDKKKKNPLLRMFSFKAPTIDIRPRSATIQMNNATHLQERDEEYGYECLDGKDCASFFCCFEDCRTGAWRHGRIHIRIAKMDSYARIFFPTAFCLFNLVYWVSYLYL

N=c1ccc(-c2ccc(N=Nc3ccccc3)cc2)nn1CCCC(=O)O [azogabazine]
spike frequency ([1]; before UV): 8.4 ± 3.3 Hz
burst frequency ([1]; burst firing cells): 1.1 ± 0.3 Hz
individual spikes per burst ([1]; burst firing cells): 11 ± 3
inhibition at 1 µM ([1]; UV on proximal dendritic zones, normalised to exposed area, read-out: inhibition of individual spike generation after UV isomerization): 50 ± 17%
inhibition at 1 µM ([1]; UV on proximal dendritic zones, read-out: inhibition of spike burst generation after UV isomerization): 60 ± 9%
inhibition at 1 µM ([1]; UV on somatic membrane, normalised to exposed area, read-out: inhibition of individual spike generation after UV isomerization): 18 ± 3%
inhibition at 1 µM ([1]; UV on somatic membrane, read-out: inhibition of spike burst generation after UV isomerization): 25 ± 3%
cis isomer fraction [2, 6]: ~ 85%
trans isomer fraction [2, 6]: 15%
time for UV-established cis:trans ratio to change towards ~25% cis: 75% trans ([2]; UV-exposed sample kept in ambient light): 2 to 4 h
cis isomer fraction [2, 7]: 25%
trans isomer fraction [2, 7]: approximately 75%
trans isomer fraction ([2]; long-term darkness, deuterated DMSO): ~ 100%
IC50 [3]: 22.6 nM
pIC50 [3]: 7.65 ± 0.14
block of GABA current ([4]; 1 μM azogabazine co-applied with 10 μM GABA, ambient daylight): near complete block
remaining activity at 1 µM ([4]; HEK293, read-out: GABA current recovery during UV light exposure, % of control GABA current, 1 μM azogabazine (not dark-adapted) + 10 μM GABA, UV light, n = 8): 64 ± 9%
remaining activity at 1 µM ([4]; HEK293, 1 μM azogabazine (not dark-adapted) + 10 μM GABA, blue light, n = 8, read-out: GABA current during blue light exposure, % of control): 6 ± 3%
IC50 ([4]; UV pre-exposed azogabazine (365 PE, ~15% trans)): 104 nM
IC50 ([4]; dark-adapted azogabazine (~100% trans), wild-type): 21.1 nM
inhibitory potency of dark-adapted versus UV pre-exposed azogabazine ([4]; dark-adapted higher than UV pre-exposed): 5 fold
block of GABA-mediated IPSCs ([5]; 1 μM azogabazine (saturating), dark-adapted): rapidly blocked all the GABA-mediated IPSCs
mean IPSC amplitude recovered with UV light ([5]; UV spot directed to soma): −74 ± 16 pA
IPSC frequency normalised to 100 μm^2 membrane area ([5]; UV spot on proximal dendrites): 4.2 ± 0.9 Hz
mean IPSC amplitude recovered with UV light ([5]; UV spot on proximal dendritic zones): −41 ± 7 pA
IPSC frequency normalised to 100 μm^2 membrane area ([5]; UV spot on soma): 1.8 ± 0.3 Hz
